The record followed here is ChEMBL document CHEMBL6127093, “The evolution of small-molecule Akt inhibitors from hit to clinical candidate” (Eur J Med Chem, 2024).

≈ marks a conversion by molar mass, not a printed value.

A short description of data set [1]: Antiproliferative activity against human KHOS-240S cells assessed as reduction in cell viability incubated for 24 hrs by MTT assay. The format is functional, cell-based.
Data set [2] deals with KOSC-2. Kind of data set: Antiproliferative activity against human KOSC-2 cells assessed as reduction in cell viability incubated for 24 hrs by MTT assay. Type of data set: functional, cell-based. As to conditions: KOSC-2, 24 h. (In general: Tetrazolium assays rely on reduction of a dye to a coloured formazan, in cell work by metabolically active cells.)
Data set [3] is described as follows: Antiproliferative activity against human 95-D cells assessed as reduction in cell viability incubated for 24 hrs by MTT assay. The format is functional, cell-based.
The nature of data set [4]: Volume of distribution at steady state in rat at 1 mg/kg, iv. The format is ADME, organism-based. To be noted: in vivo, read-out: Vdss.
Data set [5] is described as follows: Volume of distribution at steady state in mouse at 5 mg/kg, iv. Type of data set: ADME, organism-based. To be noted: in vivo, read-out: Vdss.
The nature of data set [6]: Metabolic stability in mouse hepatocyte assessed as intrinsic clearance. Type of data set: ADME, cell-based. As to conditions: hepatocytes.
Data set [7] is described as follows: Volume of distribution at steady state in dog at 1 mg/kg, iv. To be noted: in vivo, read-out: Vdss. Type of data set: ADME, organism-based, Canis lupus familiaris.
Data set [8] in a line: Clearance in Beagle dog at 0.5 mg/kg, iv. The format is ADME, organism-based, Canis lupus familiaris. To be noted: in vivo.
Data set [9] is described as follows: Metabolic stability in rat hepatocyte assessed as intrinsic clearance. The format is ADME, cell-based. To be noted: hepatocytes.
A short description of data set [10]: in vivo. As to conditions: rat.
A short description of data set [11]: in vivo. To be noted: mouse.
A short description of data set [12]: Microsomal stability in human liver microsomes assessed as half life. Type of data set: ADME, Microsome.
The nature of data set [13]: Half life in Sprague-Dawley rat at 2 mg/kg, iv by LC-MS/MS analysis. Type of data set: ADME, organism-based. As to conditions: in vivo.
A short description of data set [14]: Aqueous solubility of compound at pH 7.4. The format is physicochemical. To be noted: buffer.
A short description of data set [15]: Oral bioavailability in CD-1 mouse at 5 mg/kg measured for 24 hrs by LC-MS/MS analysis. The format is ADME, organism-based. To be noted: in vivo.
Data set [16] has as its system PC-3. Nature of the data set: Antitumor activity against human PC-3 cells xenografted in CD-1 mouse assessed as tumor growth inhibition at 100 mg/kg, po bid administration relative to control. Type of data set: functional. As to conditions: read-out: TGI.
Data set [17] has as its system PC-3. Nature of the data set: Antitumor activity against human PC-3 cells xenografted in mouse assessed as inhibition of tumor growth at 50 mg/kg, po administered for 15 days relative to control. The format is functional. As to conditions: PC-3, 360 h, time 15 day, read-out: TGI. Background: A xenograft is tissue or cells of one species grown in another, often human tumour cells in immunodeficient mice.

As a reminder, the IC50 is the midpoint of a concentration-inhibition curve. By clearance is commonly meant the rate of elimination divided by the concentration. One may read the half-life as how long it takes for the measured level to halve. What is called solubility is the concentration that dissolves in the medium under given conditions. A high value points to much dissolved substance. As usually defined, the bioavailability is dose-corrected exposure relative to a reference, in per cent. Read a high bioavailability as good availability.

In the case of `Cn1nccc1-c1ccc(C(=O)N[C@@H]2CNCC[C@H]2c2ccc(F)c(F)c2)c(F)c1`, the IC50 in data set [1] came to 7.47 µM; in data set [2], 7.47 µM; in data set [3], 1.03 µM.
As to `NC1(C(=O)NCc2ccc(Cl)cc2)CCN(c2ncnc3[nH]ccc23)CC1`, the values for the Vd in [4], in data set [5] and in [7] were 3.1 L/kg, 2.8 L/kg and 2 L/kg, respectively. For the same molecule, the CLH in [6] is 10 µL/min; in [9], 19 µL/min. Besides, the clearance in data set [8] stood at 2 mL/min/kg.
Turning to `NC1(C(=O)N[C@@H](CCO)c2ccc(Cl)cc2)CCN(c2ncnc3[nH]ccc23)CC1` [CAPIVASERTIB], the IC50 in data set [1] is 40.4 µM; in data set [2] it was 40.4 µM; in data set [3] it was 2.32 µM. For the same molecule, the clearance in [10] worked out at 37 mL/min/kg; in [11], 86 mL/min/kg.
Consider `Nc1ncccc1-c1nc2ccc(-c3ccccc3)nc2n1-c1ccc(C2(N)CCC2)cc1` [MIRANSERTIB], for which the half-life in data set [12] was determined as 0.917 h.
`NC(=O)c1cccc2c(N[C@H](CN3CCC3)c3ccc(Cl)c(C(F)(F)F)c3)ncnc12` [RUPITASERTIB] showed a half-life in data set [13] of 3.9 h. Further, the concentration in solution in [14] (solubility) came to 17 µg/mL (≈ 37.8 µM). Also, the bioavailability in data set [15] was 10%.
In the case of `Cc1c(NCCN2CCCC2)cc(C(=O)CCC(F)(F)F)cc1N1CCN(c2ncnc3[nH]nc(Br)c23)CC1` [XL-418], in [16], the inhibition in vivo at 100 mg/kg was 90%. The inhibition in vivo at 50 mg/kg in data set [17] was 52%.
